ChEMBL document CHEMBL1153178, “Design and synthesis of a hybrid potentiator-corrector agonist of the cystic fibrosis mutant protein DeltaF508-CFTR” (Bioorg Med Chem Lett, 2010)
Activity calls are given as the source filed them. The calls are words filed in the database; no cut-off is given here.

system: Cystic fibrosis transmembrane conductance regulator (Homo sapiens), P13569 [F508del]; assay: Agonist activity at human CFTR deltaF508 mutant expressed in rat FRT cells assessed as forskolin-stimulated […] by patch-clamp method; assay type: functional, cell-based
Sequence (P13569 as listed by the source): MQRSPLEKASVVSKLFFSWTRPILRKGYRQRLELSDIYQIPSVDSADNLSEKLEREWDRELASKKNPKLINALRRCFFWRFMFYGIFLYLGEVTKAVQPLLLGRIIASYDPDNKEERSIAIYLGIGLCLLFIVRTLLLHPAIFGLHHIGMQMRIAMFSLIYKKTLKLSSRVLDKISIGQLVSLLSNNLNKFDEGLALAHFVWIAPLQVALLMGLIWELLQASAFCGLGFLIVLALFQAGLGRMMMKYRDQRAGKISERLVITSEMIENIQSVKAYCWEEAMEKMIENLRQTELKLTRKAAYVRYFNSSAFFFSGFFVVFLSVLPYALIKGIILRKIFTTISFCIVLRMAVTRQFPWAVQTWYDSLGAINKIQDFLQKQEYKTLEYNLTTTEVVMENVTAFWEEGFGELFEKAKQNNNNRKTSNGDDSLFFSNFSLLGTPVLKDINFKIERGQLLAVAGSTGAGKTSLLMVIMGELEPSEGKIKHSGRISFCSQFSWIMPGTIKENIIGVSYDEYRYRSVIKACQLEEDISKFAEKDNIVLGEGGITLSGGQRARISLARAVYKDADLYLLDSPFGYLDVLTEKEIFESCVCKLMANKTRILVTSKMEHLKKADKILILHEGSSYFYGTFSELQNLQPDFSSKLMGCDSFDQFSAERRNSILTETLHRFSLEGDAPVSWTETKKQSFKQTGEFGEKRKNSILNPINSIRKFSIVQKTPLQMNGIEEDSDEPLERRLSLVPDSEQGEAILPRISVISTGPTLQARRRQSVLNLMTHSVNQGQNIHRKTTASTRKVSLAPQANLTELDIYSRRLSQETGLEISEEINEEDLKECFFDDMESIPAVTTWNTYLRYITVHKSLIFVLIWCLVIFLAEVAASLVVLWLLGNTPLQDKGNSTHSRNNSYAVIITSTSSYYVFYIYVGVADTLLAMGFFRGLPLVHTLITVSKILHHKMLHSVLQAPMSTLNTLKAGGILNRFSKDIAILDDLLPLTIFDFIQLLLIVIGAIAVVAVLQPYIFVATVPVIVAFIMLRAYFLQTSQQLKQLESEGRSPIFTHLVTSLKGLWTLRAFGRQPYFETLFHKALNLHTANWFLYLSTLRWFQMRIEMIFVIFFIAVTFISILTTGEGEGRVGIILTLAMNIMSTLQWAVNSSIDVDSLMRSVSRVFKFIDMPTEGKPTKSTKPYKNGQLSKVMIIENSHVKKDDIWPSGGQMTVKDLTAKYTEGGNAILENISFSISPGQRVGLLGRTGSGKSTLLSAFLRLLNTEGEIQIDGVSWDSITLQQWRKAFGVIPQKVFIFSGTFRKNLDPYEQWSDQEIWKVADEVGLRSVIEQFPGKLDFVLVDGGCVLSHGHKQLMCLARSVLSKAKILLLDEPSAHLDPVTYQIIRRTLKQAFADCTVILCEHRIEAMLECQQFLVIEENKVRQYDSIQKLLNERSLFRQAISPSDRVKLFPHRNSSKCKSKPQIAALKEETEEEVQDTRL

Activity	SMILES
inactive	Cc1nc(NC(=O)c2ccccc2)sc1-c1csc(Nc2cc(Cl)ccc2OCCOCCOCC(=O)OCc2ccc(NC(=O)[C@H](c3ccccc3)N(C)C(=O)Cc3c[nH]c4ccccc34)cc2)n1
Active	Cc1nc(NC(=O)c2ccccc2)sc1-c1csc(Nc2cc(Cl)ccc2OCCOCCOCC(=O)O)n1
Active	CN(C(=O)Cc1c[nH]c2ccccc12)[C@H](C(=O)Nc1ccc(CO)cc1)c1ccccc1
